The record followed here is patent US12071469B2, “Peptide compounds for suppressing inflammation” (Duke University, priority 2011, dated 2024).

The subject of assay [1] is mice with traumatic brain injury. As to the kind of experiment: Rotorod vestibulomotor function after traumatic brain injury. The format is in vivo, mouse. The conditions noted are these: 0.05 mg/kg iv at 2 h and 6 h after traumatic brain injury. As to the method: An experimental murine model for traumatic brain injury was developed. Laskowitz, et al. (2010) J. Neurotrauma, 27:1983-95. Male mice (age 12-14 weeks) were anesthetized with 4.3% isoflurane in oxygen in an anesthesia induction box for 90 seconds. The trachea was intubated and the lungs mechanically ventilated with 1.4% isoflurane in a 50/50 mixture of oxygen and nitrogen. Body temperature was maintained at 37° C. using surface heating/cooling. The top of the skull was exposed by a midline incision to identify anatomical landmarks, and a concave 3-mm metallic disc was secured to the skull surface with an adhesive, directly midline and just caudal to the bregma. The disc diffused the energy of impact and reduced the incidence of depressed skull fracture to less than 10%. After general anesthesia, mice were positioned in a stereotactic device and the skull was exposed. A pneumatic impactor (diameter: 2.0 mm; available from Air-Power, Inc.) discharged at 6.8±0.2 m/s with a head displacement of 3 mm was used to deliver a single midline impact to the disc surface.
An experimental procedure for measuring neurological deficits was developed. An automated rotorod (available from Ugo Basile North America, Inc.) was used to assess vestibulomotor function. On the day before experimental induction of a neurological condition or injury (such as, for example, traumatic brain injury or intracerebral hemorrhage as described above), mice under went two consecutive conditioning trials at a set rotational speed (16 revolutions per minute) for 60 seconds followed by three additional trials with an accelerating rotational speed. The average time to fall from the rotating cylinder in the latter three trials was recorded as baseline latency. After injury, mice under went consecutive daily testing with three trials of accelerating rotational speed (intertribal interval of 15 minutes). Average latency to fall from the rod was recorded, and mice unable to grip the rod were scored with a latency of 0 seconds.
Groups of mice received either an ApoE mimetic peptide (SEQ ID NO:3; 0.05 mg/kg or 0.2 mg/kg) or carrier (saline) by intravenous tail vein injection at 2 hours and again at 6 hours after traumatic brain injury induced as described in Example 3. Each mouse was tested for vestibulomotor function by rotorod latency measured before and after injury, as described in Example 3.
Groups of mice received either an ApoE mimetic peptide (SEQ ID NO:4; 0.05 mg/kg) or carrier (saline) by intravenous tail vein injection at 2 hours and again at 6 hours after traumatic brain injury induced as described in Example 3. Each mouse was tested for vestibulomotor function by rotorod latency measured before and after injury, as described in Example 3. […]

In assay [2] the test system is mice with middle cerebral artery occlusion (focal ischemia-reperfusion). The assay can be described thus: Rotorod vestibulomotor function after modified middle cerebral artery occlusion (MCAO). The format is in vivo, mouse. The source says:
A modified middle cerebral artery occlusion (MCAO) model (Huang et al., (1994) Science, 265:1883-1885; Laskowitz et al., (1997) J. Cereb. Blood Flow Metab., 17:753-758) was used to determine the effect of the mimetic peptides on neurological function after stroke and to evaluate the peptide's efficacy as a therapeutic agent for stroke. The mice were endotracheally intubated after anesthesia induction with 4.6% isoflurane, and the lungs were mechanically ventilated with 1.6% isoflurane in 30% O2/70% N2. Via a midline cervical skin incision, the right common carotid artery was identified. The external carotid artery was ligated and transected. The internal carotid artery was dissected distally until the origin of the pterygopalatine artery was visualized. A 6-0 nylon monofilament with blunted tip lightly coated with silicone was inserted into the proximal external carotid artery stump and advanced 11 mm into the internal carotid artery to occlude the middle cerebral artery. After 90 min, the filament was removed to restore blood perfusion, and the skin incision closed with suture. Isoflurane was discontinued and the mice were extubated upon the recovery of spontaneous respiration. Post-injury mice were placed in an oxygen-enriched environment (FIO2=50%) for 1 hr and then returned to their cages. Rectal temperature was continuously monitored and servoregulated with surface heating/cooling at 37° C. throughout the procedure.
Two groups of 10-12 week old male C57Bl/6J mice, a control group (n=12) and a VR-55-treated group (n=9), received MCAO. […]
An automated Rotorod (Ugo Basile, Comerio, Italy) was used to assess vestibulomotor function, as previously described above. […] The average time to fall from the rotating cylinder in the latter 3 trials was recorded as baseline functional Rotorod latency. […] The average latency to fall from the rod was recorded. […]

Ac-VSRRR-NH2 [VR-55, Ac-VSRRR-NH2]: in assay [1], the “durability of effect on rotorod latency” value was “durable through the five-day testing period”. In addition, the “vestibulomotor performance (rotorod latency) compared to carrier” value in assay [1] (FIG. 3) is “improved vestibulomotor performance”. Moreover, the “functional Rotorod latency compared to control mice” value in assay [2] (Day 3 post-injury, 0.05 mg/kg iv at 30 min and 6 hrs after reperfusion) was “improvement in functional Rotorod latency”. In addition, the “functional Rotorod latency” value in assay [2] (Day 3 post-injury, 0.05 mg/kg iv at 30 min and 6 hrs after reperfusion, control mice 161+/−32 sec) was found to be 216 ± 26 s. Moreover, the “baseline functional Rotorod latency” value in assay [2] (day before MCAO, control mice 217+/−20 sec) stood at 214 ± 22 s.
